Experimental data: ChEMBL document CHEMBL4334507, “Development and Characterization of a Fluorescent Probe for GLS1 and the Application for High-Throughput Screening of Allosteric Inhibitors” (J Med Chem, 2019); call rule not given here
Converted amounts (≈) assume the structure as drawn.

How the values were obtained:
HCT-116 = experiment: Antiproliferative activity against human HCT116 cells assessed as reduction in cell viability incubated for 72 hrs by MTT assay; assay type: functional, cell-based; conditions: HCT-116, 72 h
[1] = molecular target: T1, Glutaminase kidney isoform, mitochondrial (Homo sapiens, UniProt O94925); experiment: Inhibition of N-[2-[(3',6'-dihydroxy-1-oxo-spiro[isobenzofuran-3,9'-xanthene]-5-yl)carbamothioylamino]ethyl]-N'-[6-[4-[5-[[2-(2-pyridyl)acetyl]amino]-1,3,4-thiadiazol-2-yl]butyl]pyridazin-3-yl]pentanediamide binding to human GLS1 expressed in Escherichia coli strain BL21 (DE3)pLysS by fluorescence polarization binding assay
T1 sequence (O94925 whole entry): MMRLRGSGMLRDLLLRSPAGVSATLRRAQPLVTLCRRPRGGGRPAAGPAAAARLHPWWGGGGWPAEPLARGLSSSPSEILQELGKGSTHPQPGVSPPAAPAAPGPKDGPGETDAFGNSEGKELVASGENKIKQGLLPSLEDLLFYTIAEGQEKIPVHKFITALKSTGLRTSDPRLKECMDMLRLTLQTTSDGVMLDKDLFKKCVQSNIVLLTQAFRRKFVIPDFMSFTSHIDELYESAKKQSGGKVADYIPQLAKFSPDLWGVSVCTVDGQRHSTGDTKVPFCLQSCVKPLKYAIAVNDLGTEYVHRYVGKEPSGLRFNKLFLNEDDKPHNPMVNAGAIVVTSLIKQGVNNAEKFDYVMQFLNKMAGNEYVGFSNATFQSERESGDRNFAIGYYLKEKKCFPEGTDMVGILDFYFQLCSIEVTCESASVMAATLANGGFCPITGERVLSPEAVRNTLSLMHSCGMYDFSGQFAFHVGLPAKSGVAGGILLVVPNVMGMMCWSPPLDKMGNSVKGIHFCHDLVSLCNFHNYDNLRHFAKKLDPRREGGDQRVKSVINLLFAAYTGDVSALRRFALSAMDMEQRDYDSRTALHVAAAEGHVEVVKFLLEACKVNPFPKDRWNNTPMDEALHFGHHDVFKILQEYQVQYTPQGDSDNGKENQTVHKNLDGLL

[2] = molecular target: T1, Glutaminase kidney isoform, mitochondrial; experiment: Inhibition of human GLS1 expressed in Escherichia coli strain BL21 (DE3)pLysS pre-incubated for 10 mins before glutamine addition and measured after 60 mins by bovine liver glutamate dehydrogenase based coupled enzyme assay
MDA-MB-436 = experiment: Antiproliferative activity against human MDA-MB-436 cells assessed as reduction in cell viability incubated for 72 hrs by MTT assay; assay type: functional, cell-based; conditions: MDA-MB-436, 72 h
[3] = molecular target: T2, Glutaminase kidney isoform, mitochondrial (Homo sapiens) (UniProt O94925); experiment: Binding affinity to 1 uM human GLS1 expressed in Escherichia coli strain BL21 (DE3)pLysS by fluorescence polarization binding assay relative to control
T2 sequence (whole entry): T1 sequence (O94925 whole entry)

[4] = molecular target: T1, Glutaminase kidney isoform, mitochondrial; experiment: Binding affinity to human GLS1 expressed in Escherichia coli strain BL21 (DE3)pLysS by fluorescence polarization binding assay
[5] = molecular target: Serum albumin (Bos taurus) (UniProt P02769); experiment: Binding affinity to BSA by fluorescence polarization binding assay relative to control; conditions: bovine
Chain of Serum albumin (Bos taurus) (P02769 whole entry, looked up, canonical isoform): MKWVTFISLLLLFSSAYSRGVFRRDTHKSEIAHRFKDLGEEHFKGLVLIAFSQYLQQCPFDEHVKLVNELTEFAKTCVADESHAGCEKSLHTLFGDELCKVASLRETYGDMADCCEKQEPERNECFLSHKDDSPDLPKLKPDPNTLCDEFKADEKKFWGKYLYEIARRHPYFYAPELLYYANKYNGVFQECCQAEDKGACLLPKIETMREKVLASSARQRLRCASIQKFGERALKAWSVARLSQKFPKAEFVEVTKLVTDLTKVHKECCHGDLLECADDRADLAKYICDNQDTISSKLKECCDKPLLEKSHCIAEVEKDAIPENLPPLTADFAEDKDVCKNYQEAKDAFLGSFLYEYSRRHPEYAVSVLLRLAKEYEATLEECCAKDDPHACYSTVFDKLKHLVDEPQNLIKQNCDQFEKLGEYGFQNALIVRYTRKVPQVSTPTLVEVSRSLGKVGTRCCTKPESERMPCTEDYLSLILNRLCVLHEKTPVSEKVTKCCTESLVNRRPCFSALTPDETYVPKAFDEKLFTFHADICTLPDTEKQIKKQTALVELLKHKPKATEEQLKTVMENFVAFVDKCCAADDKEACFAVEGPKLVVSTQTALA

[6] = molecular target: T2, Glutaminase kidney isoform, mitochondrial (Homo sapiens); experiment: (§1) Binding affinity to human GLS1 expressed in Escherichia coli strain BL21 (DE3)pLysS by SPR assay
[7] = molecular target: T1, Glutaminase kidney isoform, mitochondrial; experiment: as §1
[8] = Distribution coefficient, logD of the compound incubated for 72 hrs by LC-MS based shake-flask method; assay type: physicochemical; conditions: octanol/water
[9] = Ratio of intrinsic aqueous solubility of the test compound to CB839 incubated for 72 hrs by LC-MS based shake-flask method; assay type: physicochemical; conditions: buffer
[10] = molecular target: T2, Glutaminase kidney isoform, mitochondrial (Homo sapiens)
Description: Binding affinity to human GLS1 expressed in Escherichia coli strain BL21 (DE3)pLysS assessed as change in melting temperature by SYPRO orange dye based protein thermal shift assay

[11] = Intrinsic aqueous solubility incubated for 72 hrs by LC-MS based shake-flask method; assay type: physicochemical; conditions: buffer

Q: Which IC50 (HCT-116) does the source give for N#Cc1ccc(Cn2cc(CCC(=O)Nc3nnc(CCCCc4nnc(NC(=O)Cc5ccccc5)s4)s3)nn2)cc1 here?
A: 5140 nM

Q: What about the IC50 [1] of the same molecule?
A: 930 nM

Q: What about the IC50 [2] of the same molecule?
A: 840 nM

Q: What about the IC50 (MDA-MB-436) of the same molecule?
A: 2950 nM

Q: Which fold change (FC) [3] does the source give for O=C(CCCC(=O)Nc1ccc(CCCCc2nnc(NC(=O)Cc3ccccn3)s2)nn1)NCCNC(=S)Nc1ccc2c(c1)C1(OC2=O)c2ccc(O)cc2Oc2cc(O)ccc21 here?
A: 2

Q: And the Kd [4]?
A: 450 nM

Q: And the Activity [5]?
A: Not Active

Q: And the Activity [6]?
A: Dose-dependent effect

Q: What about the Kd [7] of the same molecule?
A: 610 nM

Q: For O=C(CCc1cn(Cc2ccccc2)nn1)Nc1nnc(CCCCc2nnc(NC(=O)Cc3ccccc3)s2)s1, which IC50 (HCT-116) is on record?
A: 4780 nM

Q: What about the IC50 [1] of the same molecule?
A: 920 nM

Q: What about the IC50 [2] of the same molecule?
A: 900 nM

Q: And the IC50 (MDA-MB-436)?
A: 1160 nM

Q: Which IC50 (HCT-116) does the source give for O=C(CCc1cn(Cc2ccc(F)cc2)nn1)Nc1nnc(CCCCc2nnc(NC(=O)Cc3ccccc3)s2)s1 here?
A: 1090 nM

Q: What about the IC50 [1] of the same molecule?
A: 1220 nM

Q: And the IC50 [2]?
A: 1110 nM

Q: And the IC50 (MDA-MB-436)?
A: 350 nM

Q: What does the source list for O=C(Cc1cccc(OC(F)(F)F)c1)Nc1ccc(CCCCc2nnc(NC(=O)Cc3ccccn3)s2)nn1?
A: IC50 (HCT-116): 60 nM; logD at 72 h [8]: 1.9; IC50 (MDA-MB-436): 520 nM

Q: Which IC50 (HCT-116) does the source give for COc1ccc(Cn2cc(CCC(=O)Nc3ccc(CCCCc4nnc(NC(=O)Cc5ccccn5)s4)nn3)nn2)cc1OC here?
A: 380 nM

Q: And the IC50 [1]?
A: 400 nM

Q: And the IC50 [2]?
A: 330 nM

Q: And the IC50 (MDA-MB-436)?
A: 400 nM

Q: Which IC50 (HCT-116) does the source give for O=C(CCc1cn(Cc2ccc(OC(F)(F)F)cc2)nn1)Nc1ccc(CCCCc2nnc(NC(=O)Cc3ccccn3)s2)nn1 here?
A: 250 nM

Q: What about the IC50 [1] of the same molecule?
A: 390 nM

Q: And the IC50 [2]?
A: 300 nM

Q: And the IC50 (MDA-MB-436)?
A: 310 nM

Q: Which IC50 (HCT-116) does the source give for COc1ccc(Cn2cc(CCC(=O)Nc3nnc(CCCCc4nnc(NC(=O)Cc5ccccc5)s4)s3)nn2)cc1OC here?
A: 450 nM

Q: And the IC50 [1]?
A: 850 nM

Q: And the IC50 [2]?
A: 500 nM

Q: What about the IC50 (MDA-MB-436) of the same molecule?
A: 800 nM

Q: Which IC50 (HCT-116) does the source give for O=C(Cc1ccccc1)Nc1nnc(CCSCCc2nnc(NC(=O)Cc3ccccc3)s2)s1 here?
A: 1020 nM

Q: What about the IC50 (MDA-MB-436) of the same molecule?
A: 2400 nM

Q: Which results are given for Cc1cccc(C)c1Cn1cc(CCC(=O)Nc2ccc(CCCCc3nnc(NC(=O)Cc4ccccn4)s3)nn2)nn1?
A: IC50 (HCT-116): 270 nM; IC50 [1]: 460 nM; IC50 [2]: 320 nM; IC50 (MDA-MB-436): 340 nM

Q: Which IC50 (HCT-116) does the source give for Cc1ccc(Cn2cc(CCC(=O)Nc3ccc(CCCCc4nnc(NC(=O)Cc5ccccn5)s4)nn3)nn2)cc1 here?
A: 150 nM

Q: What about the Ratio [9] of the same molecule?
A: 9

Q: And the IC50 [1]?
A: 41 nM

Q: What about the IC50 [2] of the same molecule?
A: 27 nM

Q: And the ΔTm [10]?
A: 16.5 °C

Q: And the logD at 72 h [8]?
A: 1.29

Q: And the solubility thermodynamic at 72 h [11]?
A: 20.8 µg/mL (≈ 34.9 µM)

Q: What about the Kd [7] of the same molecule?
A: 68 nM

Q: And the IC50 (MDA-MB-436)?
A: 180 nM

Q: For O=C(CCc1cn(Cc2ccc(C(F)(F)F)cc2)nn1)Nc1ccc(CCCCc2nnc(NC(=O)Cc3ccccn3)s2)nn1, which IC50 (HCT-116) is on record?
A: 180 nM

Q: And the IC50 [1]?
A: 73 nM

Q: And the IC50 [2]?
A: 44 nM

Q: And the IC50 (MDA-MB-436)?
A: 210 nM

Q: With COc1ccc(Cn2cc(CCC(=O)Nc3nnc(CCCCc4nnc(NC(=O)Cc5ccccc5)s4)s3)nn2)cc1 as the molecule, how does the IC50 (HCT-116) read?
A: 560 nM

Q: What about the IC50 [1] of the same molecule?
A: 760 nM

Q: What about the IC50 [2] of the same molecule?
A: 510 nM

Q: And the IC50 (MDA-MB-436)?
A: 5490 nM

Q: With O=C(CCc1cn(Cc2ccc(Cl)cc2)nn1)Nc1nnc(CCCCc2nnc(NC(=O)Cc3ccccc3)s2)s1 as the molecule, how does the IC50 (HCT-116) read?
A: 3410 nM

Q: What about the IC50 [1] of the same molecule?
A: 1370 nM

Q: And the IC50 [2]?
A: 1250 nM

Q: And the IC50 (MDA-MB-436)?
A: 1140 nM

Q: Which IC50 (HCT-116) does the source give for O=C(CCc1cn(Cc2ccc([N+](=O)[O-])cc2)nn1)Nc1nnc(CCCCc2nnc(NC(=O)Cc3ccccc3)s2)s1 here?
A: 1050 nM

Q: And the IC50 [1]?
A: 2750 nM

Q: What about the IC50 [2] of the same molecule?
A: 2500 nM

Q: What about the IC50 (MDA-MB-436) of the same molecule?
A: 10700 nM

Q: What does the source list for O=C(CCc1cn(Cc2ccc(Br)cc2)nn1)Nc1nnc(CCCCc2nnc(NC(=O)Cc3ccccc3)s2)s1?
A: IC50 (HCT-116): 1850 nM; IC50 [1]: 1080 nM; IC50 [2]: 980 nM; IC50 (MDA-MB-436): 4060 nM

Q: Which results are given for Cc1ccc(Cn2cc(CCC(=O)Nc3nnc(CCCCc4nnc(NC(=O)Cc5ccccc5)s4)s3)nn2)c(C)c1?
A: IC50 (HCT-116): 1010 nM; IC50 [1]: 500 nM; IC50 [2]: 280 nM; ΔTm [10]: 7.7 °C; Kd [7]: 350 nM; IC50 (MDA-MB-436): 430 nM

Q: What does the source list for Cc1ccc(Cn2cc(CCC(=O)Nc3nnc(CCCCc4nnc(NC(=O)Cc5ccccc5)s4)s3)nn2)cc1?
A: IC50 (HCT-116): 1570 nM; IC50 [1]: 560 nM; IC50 [2]: 420 nM; IC50 (MDA-MB-436): 1790 nM

Q: With COc1ccc(Cn2cc(CCC(=O)Nc3ccc(CCCCc4nnc(NC(=O)Cc5ccccn5)s4)nn3)nn2)cc1 as the molecule, how does the IC50 (HCT-116) read?
A: 230 nM

Q: What about the IC50 [1] of the same molecule?
A: 190 nM

Q: What about the IC50 [2] of the same molecule?
A: 150 nM

Q: And the IC50 (MDA-MB-436)?
A: 630 nM

Q: Which results are given for Cc1ccc(Cn2cc(CCC(=O)Nc3ccc(CCCCc4nnc(NC(=O)Cc5ccccn5)s4)nn3)nn2)c(C)c1?
A: IC50 (HCT-116): 720 nM; IC50 [1]: 210 nM; IC50 [2]: 110 nM; IC50 (MDA-MB-436): 200 nM

Q: Which IC50 (HCT-116) does the source give for Cc1cccc(C)c1Cn1cc(CCC(=O)Nc2nnc(CCCCc3nnc(NC(=O)Cc4ccccc4)s3)s2)nn1 here?
A: 740 nM

Q: What about the IC50 [1] of the same molecule?
A: 780 nM

Q: And the IC50 [2]?
A: 520 nM

Q: And the IC50 (MDA-MB-436)?
A: 760 nM
